The values below come from article PMC12000433 (Scientific Reports, 2025).

Assay [1] relates to β1i/LMP2, β5i/LMP7 and β2i/PSMB10 in SK-N-MC^A*02:01 and other EwS cell lines. Description: Western blot of immunoproteasome subunits in EwS cell lines. Type of assay: cell-based, human. Particulars: IFN-γ 100U/ml, 24 h.
The subject of assay [2] is MHC class I on EwS cell lines. Description: flow cytometry of MHC class I on EwS cell lines. Particulars: IFN-γ 100U/ml, 24 h; W6/32 and BB7.2 mAbs. Type of assay: cell-based, human.

“IFN-γ: inflammatory cytokine used to treat EwS cell lines and tumors”: in assay [1], the immunoproteasome subunit expression result is “induced de novo expression of immunoproteasome subunits”. Further, the “MHC class I expression” value in assay [2] is reported as “induced MHC class I upregulation”.
